{
  "source": "patent US20080033041A1",
  "about": "“USE OF PHENYLETHANOLAMINOTETRALINES FOR PREPARING ANXIOLYTIC DRUGS” (SANOFI-AVENTIS, priority 2004, published 2008)",
  "key": {"[1]": {"system": "rats of the Wistar strain", "test": "Ultrasonic Vocalizations (USVs) test", "assay_type": "in vivo, rat", "conditions": "10 mg/kg i.p.", "text": "3) The Ultrasonic Vocalizations (USVs) Test\n(Molewijk et al., Psychopharmacology, (1996),128, p. 31-38)\nThe animals, their preparation and the i.p. dosage of compound to be tested are the same as those described in the Novelty Induced Grooming test.\nThis test consists of two different sessions: training and testing sessions. In the training procedure, all animals were trained for 2 days prior to testing. Training consisted of placing the animal in a standard operant chamber (ENV-018M, Med Associates, Georgia, Vt.) where shock could be delivered from a programmable shocker (Model ENV-413, Med Associates) and where it is equipped with an ultrasonic detector (Mini-3 Bat Detector, Ultra Sound Advice, UK). On each of two consecutive days, all the animals received 20 shocks (1 mA, 4 seconds) separated by a random interval that averaged 60 seconds and ranging from 30 to 90 seconds. Each shock was administered concurrently with a 4-Watt light and an acoustic tone (85 dB, 4 s). The chamber was dark between each shock presentation.\nOn the day following training, animals were administered 10 mg/kg of compound A and placed in the operant apparatus for testing. […] USVs (18-22 KHz) were recorded over the intertrial interval and were expressed as a sum of total time spent vocalizing for each animal. […]"}, "OF1 mice": {"system": "OF1 mice", "test": "Mouse Defense test Battery", "assay_type": "in vivo", "conditions": "1 hour after administration", "experimental": "6) The Mouse Defense test Battery (Griebel et al., (2002), ibid.) Male OF1 mice weighing 17 to 32 g were supplied by Charles River, Iffa Credo or Janvier (Le Genest, France). Experiments were performed 1 hour after p.o. administration of 0.3 mg/kg or 3 mg/kg of the drug or vehicle. The test was conducted in an oval runway as described (Griebel et al., 1997), 23, p. 19-31). Tested mice were submitted to a 3-minute familiarization period sixty minutes after p.o. administration of compound A. (a) The rat avoidance test/flight: Immediately after the 3-minute familiarization period, the experimenter introduced a hand-held dead rat (killed by CO2 inhalation just before the beginning of the experiment) five times at one end of the runway. The following parameter was recorded: avoidance distance (cm). (b) Risk Assessment/Chase Test: The rat was then brought up to the subject at a speed of approximately 2 m/s. A constant distance of 2 meters separated the rat and the subject when the former was introduced in the runway. The following parameter was recorded: number of stops (pauses in movement). The rat was removed after the chase was completed. (c) Defensive Aggression/Straight Alley: By the closing of two doors (60 cm distant from each other), the runway was then converted to a straight alley in which the subject was constrained. The experimenter brought the rat up to contact the subject in the straight alley. Approaches were directed quickly (within 1 second) to the subject's head. For each such contact, bites by the subjects were recorded."}, "[2]": {"system": "rats of the Wistar strain", "test": "Elevated Plus Maze test", "assay_type": "in vivo, rat", "conditions": "10 mg/kg i.p., 5 minutes observation", "text": "2) The Elevated Plus Maze Test (Pellow S. et al., Journal of Neuroscience Methods, (1985), 14(3), p.149-67) The animals, their preparation and the i.p. dosage of compound to be tested are the same as those described in the Novelty Induced Grooming test. The apparatus consisted of a plus-shaped maze, elevated of 50 centimetres from the floor, with two opposite open arms (50×10 cm) crossed at right angles by two arms of the same dimensions, but enclosed by 40-centimetre high walls with an open roof. In addition, a 1-centimetre high edge made of plexiglas surrounded the open arms to avoid falls. Illumination measured at the centre of the maze was 40 lux. After treatment, the animal was placed at the centre of the plus maze with its nose in the direction of one of the closed arms, and observed for 5 minutes, according to the following parameters: number of entries in the open and closed arms (this parameter can also be expressed by means of percentage of entries in the open arms), and time of presence in each of them (this parameter can also be expressed by means of percentage of time stayed in the open arms. The time of presence measures the time spent by the animal in the open and closed arms. The animals were divided into four groups with 7 animals per group."}, "[3]": {"system": "Sprague-Dawley and Wistar rats", "test": "Punished Drinking test", "assay_type": "in vivo, rat", "conditions": "10 mg/kg i.p., 30 minutes after injection, 5-minute period, control 10", "experimental": "4) The Punished Drinking Test (Griebel et al., (2002), ibid.) Male Sprague-Dawley and Wistar rats (Iffa Credo, L'Arbresle, and Charles River, Saint-Aubin-lès-Elbeuf, France), weighing 180 to 250 g were used. Experiments were performed 30 minutes after i.p. injection of 10 mg/kg of the drug or vehicle. The procedure was a modification of the technique described by Vogel et al., Psychopharmacologia, (1971), 21, p. 1-7. At the beginning of the experiment, rats, deprived of water but not of food for 48 hours prior to testing, were placed in cages (32×25×30 cm) with a stainless steel grid floor. Each cage was placed in sound-attenuated boxes that were well ventilated and contained a drinking tube connected to an external 50 mL burette filled with tap water. Trials were started only after the animal's tongue entered in contact with the drinking tube for the first time. An electric shock (0.6 mA/500 ms) was delivered to the tongue after every twenty licks. The number of shocks was recorded automatically during a 5-minute period. Subsequent comparisons between treatment groups and control were carried out using Dunnett's t-test."}, "Mongolian gerbils": {"system": "Mongolian gerbils", "test": "Social Interaction test", "assay_type": "in vivo, gerbil", "conditions": "10 mg/kg p.o., 1 hour after administration, control 30 seconds", "experimental": "5) The Social Interaction Test (Salomé et al., Sanofi-Synthelabo Research, CNS Department, Bagneux, France, ibid.) Male Mongolian gerbils (7-week old, 50-60 g, CERJ, France) were used. Experiments were performed 1 hour after per os (p.o.) administration of 10 mg/kg of the drug or vehicle. The procedure was based on that described initially by File et al., Brain Res., (2001), 888, p. 311-313. Testing lasting two days. On day 1, gerbils were placed individually in a plastic box (30×30×20 cm) under high light conditions (300 lux) for a 10-minute free-exploration period to familiarize with the apparatus. Twenty-four hours later, two gerbils of the same weight but unfamiliar to each other were placed together in the box they had previously explored for a 4 minute 30 seconds observation period. Interaction time (sniffing, chasing, grooming the partner) was recorded manually for each pair of gerbils. Locomotor activity (distance travelled in centimetres) was measured with an automated tracking system (Ethovision, Noldus)."}, "[4]": {"system": "rats of the Wistar strain", "test": "Novelty Induced Grooming Test", "assay_type": "in vivo, rat", "conditions": "10 mg/kg i.p., 30 min before test, 30-minute session, control 37 (±3.61)", "experimental": "1) The Novelty Induced Grooming Test\n(Gipsen et al., (1975), ibid.)\nMale rats of the Wistar strain (purchased from Morini, Italy) weighing from 200 to 220 g were used throughout this test. All animals were gently manipulated by experienced facilities' handlers, avoiding any environmental or physical stress. Compounds according to the invention to be tested were injected intraperitoneally (i.p.) to a group of rats at a dosage 10 mg/kg. Control animals received i.p. the same volume of the vehicle (i.e, physiological saline). […]\nRats were placed individually into plexiglas boxes (24×12×24 cm) in a low noise room. After a minute of adaptation, the behaviour of the rats was sampled every 15 seconds, and the occurrence of grooming was recorded in a session of 30 minutes. The occurrence of the following single elements of grooming was scored as grooming: washing (i.e., vibrating movements of the fore paws in front of the snout and licking of the same paws leading to a series of strokes along the snout and semicircular movements over the top of the head), scratching (that is scratching of the body by one of the limbs), licking (that is licking of the body fur, limbs and tail), and genital grooming (that is licking of genital area). Grooming behaviour of all animals was recorded on a tape using a video-camera (Hitachi Videocam) and then replayed and scored by two independent observers. […]"}},
  "data": [
    {"smiles": "CCOC(=O)COc1ccc2c(c1)C[C@@H](NC[C@H](O)c1cccc(Cl)c1)CC2.Cl", "note": "[compound A, ethyl [(7S) 7-[(2R) 2-(3-chlorophenyl)-2-hydroxyethylamino]-5,6,7,8-tetrahydronaphthalen-2yloxy]-acetate hydrochloride]", "values": [
      {"measurement": "decrease of conditioned USVs versus control", "setting": "[1]", "value": "~50", "unit": "%"},
      {"measurement": "Conditioned USVs duration (total time spent vocalizing)", "setting": "[1]; control more than 210 seconds", "value": "< 120", "unit": "s"},
      {"measurement": "Number of bites (defensive aggression/straight alley)", "setting": "OF1 mice; 0.3 mg/kg p.o., control about 2.75 times", "value": "about 1.3 times"},
      {"measurement": "Number of stops (risk assessment/chase test)", "setting": "OF1 mice; 3 mg/kg p.o., control 9 stops", "value": 6, "unit": "stops"},
      {"measurement": "Avoidance distance (rat avoidance test/flight)", "setting": "OF1 mice; 3 mg/kg p.o., control 120 cm", "value": 75, "unit": "cm"},
      {"measurement": "mean number of entries into the open arms", "setting": "[2]; control 4", "value": 7},
      {"measurement": "percentage of time in the open arms", "setting": "[2]; control 32%", "value": 42, "unit": "%"},
      {"measurement": "percentage of entries into the open arms", "setting": "[2]; control 40%", "value": 50, "unit": "%"},
      {"measurement": "mean time spent in the open arms", "setting": "[2]; control 78 seconds", "value": 98, "unit": "s"},
      {"measurement": "Number of shocks (punished responding)", "setting": "[3]", "value": 30, "unit": "shocks"},
      {"measurement": "Social interaction time", "setting": "Mongolian gerbils", "value": 70, "unit": "s"},
      {"measurement": "Number of grooming episodes", "setting": "[4]", "value": "17.71 (±5.91)"}
    ]}
  ]
}
